Test results reported in the supplement of paper PMC6045584.
± gives the standard deviation of the averaged measurements.

Key:
CANERTINIB = compound: C=CC(=O)Nc1cc2c(Nc3ccc(F)c(Cl)c3)ncnc2cc1OCCCN1CCOCC1 [CANERTINIB]; experiment: surviving fraction relative to DMSO-only wells; higher = less growth inhibition; conditions: exposure time: 5 days
Summary of the method: (§1)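 For each tumour cell line, log-phase cells were put into 384-well plates at 250–500 cells per well, then after 24 hours exposed continuously for five days to inhibitors at 0.5, 1, 5, 10, 50, 100, 500 and 1000 nM. Viability was assessed by CellTiter-Glo luminescence, with surviving fraction expressed relative to the median of DMSO-only wells. Lines were screened three times and retained only if replicate Pearson r exceeded 0.7 and median Z' exceeded 0.3.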

BI-2536 = compound: CC[C@@H]1C(=O)N(C)c2cnc(Nc3ccc(C(=O)NC4CCN(C)CC4)cc3OC)nc2N1C1CCCC1 [BI-2536]; experiment: as above; conditions: exposure time: 5 days
Summary of the method: as §1

Test System | surviving fraction (CANERTINIB; 0.5 nM) | surviving fraction (CANERTINIB; 1 nM) | surviving fraction (CANERTINIB; 5 nM) | surviving fraction (CANERTINIB; 10 nM) | surviving fraction (CANERTINIB; 50 nM) | surviving fraction (CANERTINIB; 100 nM) | surviving fraction (CANERTINIB; 500 nM) | surviving fraction (CANERTINIB; 1000 nM) | surviving fraction (BI-2536; 0.5 nM) | surviving fraction (BI-2536; 1 nM) | surviving fraction (BI-2536; 5 nM) | surviving fraction (BI-2536; 10 nM) | surviving fraction (BI-2536; 50 nM) | surviving fraction (BI-2536; 100 nM) | surviving fraction (BI-2536; 500 nM) | surviving fraction (BI-2536; 1000 nM)
VP229 BREAST | 0.724 ± 0.051 | 0.682 ± 0.085 | 0.638 ± 0.11 | 0.514 ± 0.061 | 0.467 ± 0.021 | 0.42 ± 0.033 | 0.201 ± 0.019 | 0.154 ± 0.044 | 0.94 ± 0.022 | 0.729 ± 0.081 | 0.373 ± 0.093 | 0.234 ± 0.019 | 0.254 ± 0.042 | 0.247 ± 0.019 | 0.242 ± 0.025 | 0.19 ± 0.011
HOSMNG BONE | 0.92 ± 0.04 | 0.978 ± 0.014 | 1.003 ± 0.0067 | 1.01 ± 0.055 | 1.08 ± 0.12 | 1.11 ± 0.1 | 1.04 ± 0.025 | 1.11 ± 0.016 | 1.03 ± 0.017 | 0.955 ± 0.11 | 0.918 ± 0.055 | 0.268 ± 0.033 | 0.047 ± 0.0036 | 0.046 ± 0.013 | 0.0673 ± 0.0061 | 0.0843 ± 0.013
MDAMB453 BREAST | 1.04 ± 0.026 | 1 ± 0.016 | 1.01 ± 0.058 | 1.01 ± 0.071 | 1.02 ± 0.047 | 1.07 ± 0.026 | 0.823 ± 0.0089 | 0.637 ± 0.067 | 0.994 ± 0.018 | 0.763 ± 0.052 | 0.178 ± 0.019 | 0.156 ± 0.025 | 0.173 ± 0.017 | 0.171 ± 0.0075 | 0.108 ± 0.031 | 0.0703 ± 0.042
HCC70 BREAST | 0.991 ± 0.14 | 1.088 ± 0.0046 | 1.02 ± 0.078 | 0.96 ± 0.019 | 0.911 ± 0.047 | 0.893 ± 0.017 | 0.707 ± 0.0092 | 0.666 ± 0.068 | 1.08 ± 0.026 | 0.933 ± 0.12 | 0.57 ± 0.047 | 0.35 ± 0.053 | 0.623 ± 0.041 | 0.795 ± 0.043 | 0.593 ± 0.042 | 0.391 ± 0.045
HT1080 SOFT TISSUE | 1.02 ± 0.015 | 1.05 ± 0.03 | 0.9963 ± 0.0099 | 0.997 ± 0.0076 | 1.019 ± 0.0087 | 0.987 ± 0.031 | 0.982 ± 0.058 | 0.97 ± 0.038 | 1.05 ± 0.027 | 1.067 ± 0.01 | 0.9357 ± 0.0021 | 0.087 ± 0.0056 | 0.0513 ± 0.0051 | 0.051 ± 0.0035 | 0.077 ± 0.0046 | 0.0823 ± 0.0095
SJSA1 BONE | 1.23 ± 0.12 | 1.2 ± 0.07 | 1.08 ± 0.15 | 1.31 ± 0.055 | 0.0523 ± 0.0021 | 1.64 ± 0.052 | 1.66 ± 0.053 | 1.74 ± 0.12 | 1.01 ± 0.067 | 1.02 ± 0.068 | 0.882 ± 0.011 | 0.252 ± 0.033 | 0.174 ± 0.01 | 0.191 ± 0.0061 | 0.267 ± 0.02 | 0.236 ± 0.015
HCC1806 BREAST | 0.803 ± 0.11 | 0.688 ± 0.12 | 0.738 ± 0.081 | 0.706 ± 0.022 | 0.738 ± 0.12 | 0.639 ± 0.027 | 0.442 ± 0.043 | 0.328 ± 0.037 | 0.932 ± 0.046 | 0.749 ± 0.07 | 0.05 ± 0.0082 | 0.0447 ± 0.026 | 0.126 ± 0.025 | 0.136 ± 0.0081 | 0.106 ± 0.0027 | 0.0743 ± 0.015
HS578T BREAST | 0.851 ± 0.12 | 0.857 ± 0.1 | 0.873 ± 0.066 | 0.785 ± 0.038 | 1.04 ± 0.14 | 1 ± 0.11 | 0.918 ± 0.11 | 0.738 ± 0.14 | 0.828 ± 0.093 | 0.73 ± 0.075 | 0.253 ± 0.013 | 0.196 ± 0.02 | 0.131 ± 0.015 | 0.132 ± 0.025 | 0.144 ± 0.0045 | 0.135 ± 0.012
T47D BREAST | 0.926 ± 0.051 | 0.898 ± 0.024 | 0.922 ± 0.058 | 0.899 ± 0.037 | 0.973 ± 0.021 | 0.96 ± 0.012 | 0.893 ± 0.015 | 0.874 ± 0.031 | 0.981 ± 0.018 | 0.871 ± 0.016 | 0.551 ± 0.017 | 0.488 ± 0.01 | 0.374 ± 0.019 | 0.53 ± 0.035 | 0.2606 ± 0.0011 | 0.276 ± 0.011
ZR751 BREAST | 0.993 ± 0.042 | 0.957 ± 0.044 | 0.948 ± 0.052 | 0.957 ± 0.093 | 0.802 ± 0.026 | 0.77 ± 0.062 | 0.648 ± 0.052 | 0.618 ± 0.029 | 1.22 ± 0.024 | 1.27 ± 0.16 | 0.902 ± 0.075 | 0.655 ± 0.0093 | 0.72 ± 0.13 | 0.865 ± 0.094 | 0.645 ± 0.039 | 0.434 ± 0.061
